{"source": "patent US9120793B2", "about": "“Triazolo-pyridine compound” (Eli Lilly and Company, priority 2013, dated 2015)", "type_in_all_cases": "cell-based", "key": {"[1]": {"molecular_target": "T1, human GPR-40 (Homo sapiens, UniProt O14842)", "T1 construct": "expressed in transfected cells; host or cells: HEK293", "T1 sequence (O14842 whole entry)": "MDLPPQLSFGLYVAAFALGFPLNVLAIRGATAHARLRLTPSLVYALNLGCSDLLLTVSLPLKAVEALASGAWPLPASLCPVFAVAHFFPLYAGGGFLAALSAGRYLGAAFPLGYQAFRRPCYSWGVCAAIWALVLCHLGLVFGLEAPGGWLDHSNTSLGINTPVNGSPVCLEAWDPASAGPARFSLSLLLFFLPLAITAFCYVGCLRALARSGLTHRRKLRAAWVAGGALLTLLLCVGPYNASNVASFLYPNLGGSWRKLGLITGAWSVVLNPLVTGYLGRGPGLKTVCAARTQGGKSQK", "test": "Calcium Flux Primary Assay", "experimental": "HEK293 cells over expressing the human GPR-40 cDNA maintained in Dulbecco's modified Eagle's medium with F12 medium in 3:1 ratio supplemented with 10% FBS and 800 μg/ml geneticin at 37° C. and 5% CO2 are employed for the study. Agonist assays are performed using a Calcium 4 Dye assay kit (Molecular Devices) in the presence or absence of 0.1% fatty acid free BSA in the assay buffer (1×HBSS (Hank's Balanced Salt Solution) & 20 mM HEPES (4-(2-hydroxyethyl)-1-piperazineethanesulfonic acid). Receptor activation is measured as an increase in intracellular calcium using the Fluorometric Imaging Plate Reader (FLIPR). Maximum change in fluorescence over the base line is used to determine the agonist response. The EC50 value of the compound is calculated using Excel Fit software (version 4; IDBS) by plotting concentration vs relative fluorescence units (RFUs). […] (Mean±SEM; SEM=standard error of the mean.)"}, "[2]": {"molecular_target": "T2, PPARα (Homo sapiens, UniProt Q07869)", "T2 construct": "expressed in transfected cells; host or cells: CV1 (African green monkey kidney)", "T2 sequence (Q07869 239-466 limits assumed)": "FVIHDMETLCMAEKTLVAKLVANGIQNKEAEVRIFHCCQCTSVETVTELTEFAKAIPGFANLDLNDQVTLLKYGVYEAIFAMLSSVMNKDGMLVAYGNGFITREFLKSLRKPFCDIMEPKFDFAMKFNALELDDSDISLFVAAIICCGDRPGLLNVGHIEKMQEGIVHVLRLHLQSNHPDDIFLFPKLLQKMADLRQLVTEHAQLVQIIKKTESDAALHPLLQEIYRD", "test": "PPARα reporter (CTF)/functional assay in CV1 cells", "settings": "examined up to 10 μM; efficacy <20% considered negative", "source_text": "(§1) Because GPR-40 is known to be activated by ligands to PPARγ, exemplified compounds are examined in PPARα, PPARδ, and PPARγ reporter assays to determine the selectivity of an exemplified compound. CV1 cells, which are derived from the renal tissue of an African green monkey, are transfected with various receptor and reporter plasmids using Fugene. For the PPARα and PPARδ assays, a reporter plasmid containing five tandem copies of the yeast transcription protein Gal4 response element, cloned upstream of a firefly luciferase gene driven by the major late promoter of adenovirus, is transfected together with a Simian Virus 40 (SV40) driven plasmid constitutively expressing a hybrid protein containing the Gal4 DNA binding domain (DBD), and either the PPARα or PPARδ ligand binding domain. For the PPARγ assay, plasmids encoding PPARγ and RXRα, both driven by a cytomegalovirus (CMV) promoter are transfected together with a plasmid containing luciferase reporter cDNA driven by the TK promoter and a receptor response element (2×PPRE). […] After 24 hours incubation with compound, cells are lysed and luciferase activity is determined as a measure of receptor activation by luminescence. […] The maximum percent stimulation is determined versus maximum stimulation obtained with 10 μM of an appropriate PPAR agonist reference compound. […]"}, "[3]": {"molecular_target": "T3, PPARδ (Homo sapiens, UniProt Q03181)", "T3 construct": "expressed in transfected cells; host or cells: CV1 (African green monkey kidney)", "T3 sequence (Q03181 211-439 limits assumed)": "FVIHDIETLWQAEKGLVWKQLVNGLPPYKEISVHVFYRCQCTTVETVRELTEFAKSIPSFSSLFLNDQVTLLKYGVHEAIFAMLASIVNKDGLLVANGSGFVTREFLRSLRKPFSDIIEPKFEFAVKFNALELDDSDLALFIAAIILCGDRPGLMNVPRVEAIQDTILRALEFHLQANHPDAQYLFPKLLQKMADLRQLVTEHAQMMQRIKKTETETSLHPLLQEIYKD", "test": "PPARδ reporter (CTF)/functional assay in CV1 cells", "settings": "examined up to 10 μM; efficacy <20% considered negative", "source_text": "as §1"}, "[4]": {"molecular_target": "T4, PPARγ (Homo sapiens, UniProt P37231)", "T4 construct": "expressed in transfected cells; host or cells: CV1 (African green monkey kidney)", "T4 sequence (P37231 1-505)": "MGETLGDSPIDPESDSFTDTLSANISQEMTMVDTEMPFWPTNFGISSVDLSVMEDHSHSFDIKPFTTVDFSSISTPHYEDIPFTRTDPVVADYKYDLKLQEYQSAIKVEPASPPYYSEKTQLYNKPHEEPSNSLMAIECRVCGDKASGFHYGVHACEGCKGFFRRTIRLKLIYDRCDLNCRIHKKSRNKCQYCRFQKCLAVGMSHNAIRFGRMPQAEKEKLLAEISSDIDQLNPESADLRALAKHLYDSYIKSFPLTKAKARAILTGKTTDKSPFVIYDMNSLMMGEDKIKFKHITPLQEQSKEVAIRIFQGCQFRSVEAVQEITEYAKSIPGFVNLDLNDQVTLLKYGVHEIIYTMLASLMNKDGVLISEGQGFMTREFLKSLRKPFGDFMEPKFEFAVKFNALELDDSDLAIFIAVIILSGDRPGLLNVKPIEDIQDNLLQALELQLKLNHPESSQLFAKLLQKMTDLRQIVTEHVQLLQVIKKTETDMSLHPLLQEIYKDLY", "T4 sequence (P19793 1-462 partner)": "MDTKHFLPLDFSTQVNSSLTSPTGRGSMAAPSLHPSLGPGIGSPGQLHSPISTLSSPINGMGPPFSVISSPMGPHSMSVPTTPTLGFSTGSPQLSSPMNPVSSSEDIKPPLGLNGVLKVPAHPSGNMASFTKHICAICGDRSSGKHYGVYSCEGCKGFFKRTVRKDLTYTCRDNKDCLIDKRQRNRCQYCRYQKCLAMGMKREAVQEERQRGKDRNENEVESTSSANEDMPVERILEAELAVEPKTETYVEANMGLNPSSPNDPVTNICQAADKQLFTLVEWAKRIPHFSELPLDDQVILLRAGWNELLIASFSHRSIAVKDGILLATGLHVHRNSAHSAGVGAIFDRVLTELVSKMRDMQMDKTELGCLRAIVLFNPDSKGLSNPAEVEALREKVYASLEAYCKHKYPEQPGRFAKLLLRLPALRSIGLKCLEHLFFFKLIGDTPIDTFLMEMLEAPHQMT", "test": "PPARγ reporter (CTF)/functional assay in CV1 cells", "source_text": "as §1"}}}
{"smiles": "CC#C[C@@H](CC(=O)O)c1ccc(OCc2ccc3nc(-c4c(C)cccc4C)nn3c2)cc1", "note": "[Example 1, (3S)-3-[4-[[2-(2,6-Dimethylphenyl)-[1,2,4]triazolo[1,5-a]pyridin-6-yl]methoxy]phenyl]hex-4-ynoic acid]", "values": [{"measurement": "EC50", "setting": "[1]; HEK293 cells over expressing human GPR-40, intracellular calcium, FLIPR", "value": 119, "unit": "nM"}, {"measurement": "efficacy", "setting": "[1]; maximal response compared to natural ligand linoleic acid", "value": 76, "unit": "%"}, {"measurement": "functional activation of PPARα", "setting": "[2]", "value": "No functional activation"}, {"measurement": "functional activation of PPARδ", "setting": "[3]", "value": "No functional activation"}, {"measurement": "EC50", "setting": "[4]; CV1 cells, luciferase reporter, 24 hours", "value": 2600, "unit": "nM"}, {"measurement": "Emax", "setting": "[4]; CV-1, versus 10 μM PPAR agonist reference compound, <20% considered negative, read-out: % efficacy in PPARγ CTF assay", "value": 17, "unit": "%"}]}
